# Data from patent publication US8822407B2, “Preparation of conjugates comprising adenine derivatives and allergenic proteins and their use for specific immunotherapy of allengenic diseases” (Universita' Degli Studi di Firenze, priority 2010, dated 2014).
# Key:
# purified CD14+ cells = assay: Cytokine production by purified CD14+ cells (ELISA of supernatants, 36 hrs); format: cell-based, human; details: for IL-6 production / IL-10 production / IL-12p40 production / TNF-alfa production: Table A
# Experimental: Circulating mononuclear cells (MNC) are isolated by density gradient (Ficoll-Hypaque) using buffy coats from 14 normal donors (Servizio Immunotrasfusionale e terapie cellulari, Azienda Ospedaliera Universitaria A. Meyer, Firenze). 200×10^6 MNC are separated by the use of a commercial kit (CD14 isolation kit, Miltenyi) by the addition of 400 μl anti-CD14 monoclonal antibody bound to iron beads followed by isolation on magnetic columns (LS column). 50×10^6 monocytes are recovered by positive selection and are extensively washed with calcium and magnesium-free sterile PBS and then seeded in complete medium plus 10% foetal calf serum in 24 flat bottomed plates at the concentration of 1×10^6/ml. […] The plates are incubated for 36 hrs at 37° C. in 5% CO2 humidified atmosphere and the supernatants are collected after centrifugation at 1200 rpm, aliquoted and then stored at −20° C. up to the assay. […]
# (§1) For the determination of cytokines and chemokines of the innate immunity, commercial ELISAs have been used: IL-12p40 (Cytoscreen, Biosource Int, Camarillo, Calif.), IFN-alfa (Cytoscreen), TNF-alfa (Cytoscreen), IL-10 (Pharmingen), IL-6 and CXCL10 (R&D System). 100 μl/well of single supernatants are incubated in flat bottomed plates as specified by the productors and the amounts of the single cytokines are expressed as pg/ml on the basis of a reference curve by using recombinant cytokines.
# purified BDCA4+ cells = assay: Cytokine production by purified BDCA4+ cells (plasmacytoid dendritic cells), ELISA; format: cell-based, human; details: for IFN-alfa production / IL-6 production / TNF-alfa production / IL-10 production: Table C
# Experimental: The preparation of purified BDCA4+ cells has been obtained in a similar way starting from MNC of buffy coats of the same 14 healthy donors. […] By positive selection 5×10^6 plasmacytoid dendritic cells (PDCs) are recovered, extensively washed with calcium and magnesium-free sterile PBS and seeded in complete medium plus 10% foetal calf serum in 24-flat bottomed plates at the concentration 1×10^6/ml. […] The plates are incubated for 36 hrs at 37° C. in 5% CO2 humidified atmosphere and the supernatants are collected after centrifugation at 1200 rpm, aliquoted and then stored at −20° C. up to the assay. […]
# as §1
# human TLR7 = biological target: T1, human TLR7 (Homo sapiens, UniProt Q9NYK1); assay: TLR7 activation, NF-kB luciferase reporter in transfected HEK293 cells; format: cell-based; details: human TLR7-encoding plasmid
# T1 construct: expressed in transfected cells; host or cells: HEK293 (transient Nucleofection, Amaxa)
# T1 sequence (Q9NYK1 27-1049): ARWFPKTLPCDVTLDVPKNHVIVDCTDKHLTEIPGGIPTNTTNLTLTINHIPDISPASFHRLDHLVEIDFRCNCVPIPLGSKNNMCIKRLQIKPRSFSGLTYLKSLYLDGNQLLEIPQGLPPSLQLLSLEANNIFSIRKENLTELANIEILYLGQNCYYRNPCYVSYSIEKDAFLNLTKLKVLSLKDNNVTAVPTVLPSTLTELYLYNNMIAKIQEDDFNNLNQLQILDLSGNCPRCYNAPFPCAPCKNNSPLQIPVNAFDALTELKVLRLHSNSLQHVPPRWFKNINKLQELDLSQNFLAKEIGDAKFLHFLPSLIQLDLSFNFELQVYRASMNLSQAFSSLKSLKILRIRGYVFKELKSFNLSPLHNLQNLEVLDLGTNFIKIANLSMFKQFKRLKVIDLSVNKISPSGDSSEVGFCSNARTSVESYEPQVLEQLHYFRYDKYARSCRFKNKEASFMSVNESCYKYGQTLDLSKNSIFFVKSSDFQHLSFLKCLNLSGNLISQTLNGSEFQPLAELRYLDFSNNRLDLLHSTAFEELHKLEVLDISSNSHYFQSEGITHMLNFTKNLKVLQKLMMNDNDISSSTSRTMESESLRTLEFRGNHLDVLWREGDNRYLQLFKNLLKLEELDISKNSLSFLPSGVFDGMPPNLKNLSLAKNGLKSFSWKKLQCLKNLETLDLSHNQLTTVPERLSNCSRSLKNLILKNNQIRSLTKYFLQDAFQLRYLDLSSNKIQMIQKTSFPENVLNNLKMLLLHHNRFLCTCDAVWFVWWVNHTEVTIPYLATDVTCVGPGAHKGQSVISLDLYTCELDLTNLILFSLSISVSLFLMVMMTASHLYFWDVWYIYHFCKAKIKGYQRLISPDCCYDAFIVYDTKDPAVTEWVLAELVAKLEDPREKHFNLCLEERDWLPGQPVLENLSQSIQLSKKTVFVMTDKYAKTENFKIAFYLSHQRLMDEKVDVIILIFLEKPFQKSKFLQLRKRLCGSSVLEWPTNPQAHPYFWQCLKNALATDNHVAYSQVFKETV
# Experimental: HEK293 cells are detached by trypsin from the plastic surface of the culture bottle, extensively washed with calcium and magnesium-free PBS, counted and adjusted at the concentration 1×10^6 cells/tube in polypropylene V-bottomed tubes. After the final wash, the cells are pelleted and 100 μl transfection buffer (Amaxa) is added together with […], TLR7, TLR8 or TLR9-encoding and ELAM-1 promoter NF-kB luciferase reporter plasmids. The mixture thus obtained is transferred in special cuvettes and transient transfection is obtained in a special apparatus which is able to directly introduce genetic material into the nucleus (Nucleofection®, Amaxa GmbH). The cells are then recovered and cultured at 1×10^5/ml in 48-flat bottomed plates in E-MEM medium plus 5% foetal calf serum for 18 hrs. […] Finally the luciferase activity is measured in the cellular lysates by a commercial kit (Promega).
structure (smiles),measurement,setting,value
"Nc1nc(SCCCC(=O)ON2C(=O)CCC2=O)nc2c1nc(O)n2Cc1ccccc1 [SA-26E, 4-(6-Amino-9-benzyl-8-hydroxy-9H-purin-2-ylsulfanyl)-butyric acid 2,5-dioxo-pyrrolidin-1-yl ester]",cytokine production from purified CD14+ cells (in words),"purified CD14+ cells; 0.085 μg/ml soluble SA-26E (amount present in Conj-5, -6, -7 and -8)",not able to stimulate the production of any cytokine
same,IL-6 production,"purified CD14+ cells; Donor #1, dose 0.085 μg/ml",0 pg/mL
same,IL-10 production,"purified CD14+ cells; Donor #1, dose 0.085 μg/ml",0 pg/mL
same,IL-12p40 production,"purified CD14+ cells; Donor #1, dose 0.085 μg/ml",0 pg/mL
same,TNF-alfa production,"purified CD14+ cells; Donor #1, dose 0.085 μg/ml",0 pg/mL
same,IL-6 production,"purified CD14+ cells; Donor #1, dose 0.6 μg/ml",0 pg/mL
same,IL-10 production,"purified CD14+ cells; Donor #1, dose 0.6 μg/ml",124 pg/mL
same,IL-12p40 production,"purified CD14+ cells; Donor #1, dose 0.6 μg/ml",569 pg/mL
same,TNF-alfa production,"purified CD14+ cells; Donor #1, dose 0.6 μg/ml",345 pg/mL
same,IL-6 production,"purified CD14+ cells; Donor #1, dose 2.5 μg/ml",11 pg/mL
same,IL-10 production,"purified CD14+ cells; Donor #1, dose 2.5 μg/ml",618 pg/mL
same,IL-12p40 production,"purified CD14+ cells; Donor #1, dose 2.5 μg/ml",863 pg/mL
same,IL-6 production,"purified CD14+ cells; Donor #1, dose 10 μg/ml",2930 pg/mL
same,IL-10 production,"purified CD14+ cells; Donor #1, dose 10 μg/ml",609 pg/mL
same,IL-12p40 production,"purified CD14+ cells; Donor #1, dose 10 μg/ml",2500 pg/mL
same,TNF-alfa production,"purified CD14+ cells; Donor #1, dose 10 μg/ml",2123 pg/mL
same,IL-6 production,"purified CD14+ cells; Donor #2, dose 0.085 μg/ml",0 pg/mL
same,IL-10 production,"purified CD14+ cells; Donor #2, dose 0.085 μg/ml",0 pg/mL
same,IL-12p40 production,"purified CD14+ cells; Donor #2, dose 0.085 μg/ml",0 pg/mL
same,TNF-alfa production,"purified CD14+ cells; Donor #2, dose 0.085 μg/ml",0 pg/mL
same,IL-6 production,"purified CD14+ cells; Donor #2, dose 0.6 μg/ml",0 pg/mL
same,IL-10 production,"purified CD14+ cells; Donor #2, dose 0.6 μg/ml",0 pg/mL
same,IL-12p40 production,"purified CD14+ cells; Donor #2, dose 0.6 μg/ml",785 pg/mL
same,TNF-alfa production,"purified CD14+ cells; Donor #2, dose 0.6 μg/ml",466 pg/mL
same,IL-6 production,"purified CD14+ cells; Donor #2, dose 2.5 μg/ml",4 pg/mL
same,IL-12p40 production,"purified CD14+ cells; Donor #2, dose 2.5 μg/ml",2464 pg/mL
same,TNF-alfa production,"purified CD14+ cells; Donor #2, dose 2.5 μg/ml",1267 pg/mL
same,IL-6 production,"purified CD14+ cells; Donor #2, dose 10 μg/ml",163 pg/mL
same,IL-10 production,"purified CD14+ cells; Donor #2, dose 10 μg/ml",584 pg/mL
same,IL-12p40 production,"purified CD14+ cells; Donor #2, dose 10 μg/ml",4800 pg/mL
same,TNF-alfa production,"purified CD14+ cells; Donor #2, dose 10 μg/ml",3730 pg/mL
same,cytokine production from purified CD14+ cells (in words),purified CD14+ cells; text to Tables A and B,intermediate effect
same,cytokine production from BDCA4+ cells (in words),purified BDCA4+ cells; 0.085 μg/ml concentration,completely inactive
same,IFN-alfa production,"purified BDCA4+ cells; Donor #1, dose 0.085 μg/ml",0 pg/mL
same,IL-6 production,"purified BDCA4+ cells; Donor #1, dose 0.085 μg/ml",0 pg/mL
same,TNF-alfa production,"purified BDCA4+ cells; Donor #1, dose 0.085 μg/ml",0 pg/mL
same,IFN-alfa production,"purified BDCA4+ cells; Donor #1, dose 0.6 μg/ml",179 pg/mL
same,IL-6 production,"purified BDCA4+ cells; Donor #1, dose 0.6 μg/ml",0 pg/mL
same,IL-10 production,"purified BDCA4+ cells; Donor #1, dose 0.6 μg/ml",0 pg/mL
same,TNF-alfa production,"purified BDCA4+ cells; Donor #1, dose 0.6 μg/ml",183 pg/mL
same,IFN-alfa production,"purified BDCA4+ cells; Donor #1, dose 2.5 μg/ml",179 pg/mL
same,IL-6 production,"purified BDCA4+ cells; Donor #1, dose 2.5 μg/ml",0 pg/mL
same,IL-10 production,"purified BDCA4+ cells; Donor #1, dose 2.5 μg/ml",0 pg/mL
same,TNF-alfa production,"purified BDCA4+ cells; Donor #1, dose 2.5 μg/ml",252 pg/mL
same,IFN-alfa production,"purified BDCA4+ cells; Donor #1, dose 10 μg/ml",486 pg/mL
same,IL-6 production,"purified BDCA4+ cells; Donor #1, dose 10 μg/ml",675 pg/mL
same,IL-10 production,"purified BDCA4+ cells; Donor #1, dose 10 μg/ml",896 pg/mL
same,TNF-alfa production,"purified BDCA4+ cells; Donor #1, dose 10 μg/ml",858 pg/mL
same,IFN-alfa production,"purified BDCA4+ cells; Donor #2, dose 0.085 μg/ml",0 pg/mL
same,IL-6 production,"purified BDCA4+ cells; Donor #2, dose 0.085 μg/ml",0 pg/mL
same,IL-10 production,"purified BDCA4+ cells; Donor #2, dose 0.085 μg/ml",0 pg/mL
same,TNF-alfa production,"purified BDCA4+ cells; Donor #2, dose 0.085 μg/ml",0 pg/mL
same,IFN-alfa production,"purified BDCA4+ cells; Donor #2, dose 0.6 μg/ml",669 pg/mL
same,IL-6 production,"purified BDCA4+ cells; Donor #2, dose 0.6 μg/ml",0 pg/mL
same,IL-10 production,"purified BDCA4+ cells; Donor #2, dose 0.6 μg/ml",0 pg/mL
same,TNF-alfa production,"purified BDCA4+ cells; Donor #2, dose 0.6 μg/ml",520 pg/mL
same,IFN-alfa production,"purified BDCA4+ cells; Donor #2, dose 2.5 μg/ml",2014 pg/mL
same,IL-6 production,"purified BDCA4+ cells; Donor #2, dose 2.5 μg/ml",760 pg/mL
same,TNF-alfa production,"purified BDCA4+ cells; Donor #2, dose 2.5 μg/ml",1157 pg/mL
same,IFN-alfa production,"purified BDCA4+ cells; Donor #2, dose 10 μg/ml",3589 pg/mL
same,IL-6 production,"purified BDCA4+ cells; Donor #2, dose 10 μg/ml",1439 pg/mL
same,IL-10 production,"purified BDCA4+ cells; Donor #2, dose 10 μg/ml",750 pg/mL
same,TNF-alfa production,"purified BDCA4+ cells; Donor #2, dose 10 μg/ml",3405 pg/mL
same,cytokine production from BDCA4+ cells (in words),purified BDCA4+ cells; text to Tables C and D,intermediate effect
same,TLR7 activation (NF-κB luciferase) in transfected HEK293 cells,human TLR7,completely inactive
